Results from patent US7045520B2, “Opioid receptor active compounds” (The Curators of the University of Missouri, priority 2002, dated 2006).

Key:
murine δ opioid receptor [1] = biological target: T1, murine δ opioid receptor (Mus musculus, UniProt P32300); experiment: biochemical; format: binding; conditions: for Receptor Affinity (relative to 100%) δ: single concentration, 20 μM
T1 construct: expressed in transfected cells
Experimental: (§1) Competitive Binding Assays. Human embryonic kidney (HEK) 293 cells (ATCC CRL, 1573) were cultured at 37° C. in Dulbecco's modified Eagle's medium supplemented with 10% fetal bovine serum, 100 units/ml penicillin and 100 μg/ml streptomycin sulfate. HEK293 cells were transfected by electroporation with expression plasmids encoding murine δ or μ opioid receptors tagged at the amino termini with the FLAG-tag epitope or the human κ receptor. Cells stably expressing opioid receptors were selected in media containing 0.75 mg/ml G418 (Life Technologies, Gaithersburg, Md.).
(§2) Cell membrane preparations were collected from the stable transfectants described above. Opioid receptor binding assays were conducted in duplicate on membrane preparations that had been resuspended in 50 mM Tris-HCL, pH 7.5, utilizing [9-^3H]bremazocine (specific activity 2.6 Ci/mmol, NEN, Boston, Mass.) as radioligand and 10 μM cyclazocine to define non-specific binding. Following a one-hour incubation on ice, binding assays were terminated by filtration through Whatman GF/B filters. Filters were soaked in Ecoscint liquid scintillation solution (National Diagnostics, Manville, N.J.) and filter-bound radioactivity was measured using a Packard Tri-Carb 2100 TR liquid scintillation analyzer. Receptor binding data were analyzed by non-linear regression of saturation and competition curves using Prism 3.0 software (GraphPad Software, San Diego, Calif.). Protein concentrations were determined with the Bio-Rad protein microassay (Hercules, Calif.) using bovine serum albumin as standard.
(§3) The binding affinities for compounds listed in Table 1 (4a-c and 5a-c) were determined by competition of [9-^3H]bremazocine binding to membranes prepared from stable cells expressing either the cloned μ, δ, or κ opioid receptors as described in the above sections.
(§4) To determine the selectivity profile of compound 5c toward the cloned opioid receptors, competitive binding assays were performed in the presence of increasing concentrations of compound 5c.
(§5) Preliminary Test for Agonist vs. Antagonist Activity. A simple method to determine whether a compound is acting as an agonist or antagonist at a G-Protein coupled receptor is to perform the competitive binding assay in the presence of 100 mM NaCl. The presence of NaCl in the resuspension buffer will result in about a 4 fold decrease in binding affinity for an opioid receptor agonist, whereas an antagonist will show about a 1 fold increase in receptor affinity.

murine δ opioid receptor [2] = experiment: biochemical; format: binding; conditions: for Selectivity for δ receptor (δ/κ): ratio of receptor affinities δ to κ; for Selectivity for δ Receptor (δ/μ): ratio of receptor affinities δ to μ
Experimental: as §1, §2, §3, §4, §5

human κ receptor = biological target: T2, human κ receptor (Homo sapiens, UniProt P41145); experiment: Competitive binding assay, [9-3H]bremazocine, membranes of stably transfected HEK293 cells; conditions: for Receptor Affinity (relative to 100%) κ: single concentration, 20 μM; for Ki: average observed, from IC50 by Cheng-Prusoff, read-out: Inhibition Constant, Ki κ
T2 construct: expressed in transfected cells
Experimental: as §1, §2, §3, §4, §5

murine μ opioid receptor = biological target: T3, murine μ opioid receptor (Mus musculus, UniProt P42866); experiment: as above; conditions: for Receptor Affinity (relative to 100%) μ: single concentration, 20 μM; for Ki: average observed, from IC50 by Cheng-Prusoff, read-out: Inhibition Constant, Ki μ
T3 construct: expressed in transfected cells
Experimental: as §1, §2, §3, §4, §5

[3] = 100 mM NaCl in resuspension buffer
[4] = Inhibition Constant, Ki δ, average observed, from IC50 by Cheng-Prusoff

Structure (SMILES): COc1cccc(-n2cnnc2-c2ccc(C(C)(C)C)cc2)c1 [Compound 4a, 1-{3-[4-(tert-Butyl)phenyl]-(1,2,4-triazol-4-yl)}-3-methoxybenzene]
- Receptor Affinity (relative to 100%) δ (murine δ opioid receptor [1]): 31%
- Selectivity for δ receptor (δ/κ) (murine δ opioid receptor [2]): 1.72
- Selectivity for δ Receptor (δ/μ) (murine δ opioid receptor [2]): 2.21
- melting point: 118.2 to 118.8 °C
- Receptor Affinity (relative to 100%) κ (human κ receptor): 18%
- Receptor Affinity (relative to 100%) μ (murine μ opioid receptor): 14%

Structure (SMILES): COc1cccc(-n2cnnc2-c2cc(C(C)(C)C)ccc2OC)c1 [Compound 4b, 1-{3-[5-(tert-Butyl)-2-methoxyphenyl](1,2,4-triazol-4-yl)}-3-methoxybenzene]
- Receptor Affinity (relative to 100%) δ (murine δ opioid receptor [1]): 8%
- Selectivity for δ receptor (δ/κ) (murine δ opioid receptor [2]): 0.30
- Selectivity for δ Receptor (δ/μ) (murine δ opioid receptor [2]): 0.27
- melting point: 119.5 to 120 °C
- Receptor Affinity (relative to 100%) κ (human κ receptor): 27%
- Receptor Affinity (relative to 100%) μ (murine μ opioid receptor): 20%

Structure (SMILES): COc1cccc(-n2cnnc2-c2cccc(C(C)(C)C)c2)c1 [Compound 4c, 1-{3-[3-(tert-Butyl)phenyl]-(1,2,4-triazol-4-yl)}-3-methoxybenzene]
- Receptor Affinity (relative to 100%) δ (murine δ opioid receptor [1]): 2%
- Selectivity for δ receptor (δ/κ) (murine δ opioid receptor [2]): 0.07
- Selectivity for δ Receptor (δ/μ) (murine δ opioid receptor [2]): 0.11
- melting point: 175 to 175.5 °C
- Receptor Affinity (relative to 100%) κ (human κ receptor): 27%
- Receptor Affinity (relative to 100%) μ (murine μ opioid receptor): 19%

Structure (SMILES): CC(C)(C)c1ccc(-c2nncn2-c2cccc(O)c2)cc1 [Compound 5a, 1-{3-[4-(tert-Butyl)phenyl]-(1,2,4-triazol-4-yl)}-3-phenol]
- Receptor Affinity (relative to 100%) δ (murine δ opioid receptor [1]): 21%
- Selectivity for δ receptor (δ/κ) (murine δ opioid receptor [2]): 0.44
- Selectivity for δ Receptor (δ/μ) (murine δ opioid receptor [2]): 1.17
- Receptor Affinity (relative to 100%) κ (human κ receptor): 48%
- Receptor Affinity (relative to 100%) μ (murine μ opioid receptor): 18%

Structure (SMILES): CC(C)(C)c1ccc(O)c(-c2nncn2-c2cccc(O)c2)c1 [Compound 5b, 1-{3-[5-(tert-Butyl)-2-hydroxyphenyl]-(1,2,4-triazol-4-yl)}-3-phenol]
- Receptor Affinity (relative to 100%) δ (murine δ opioid receptor [1]): ~0%
- Receptor Affinity (relative to 100%) κ (human κ receptor): 20%
- Receptor Affinity (relative to 100%) μ (murine μ opioid receptor): 21%

Structure (SMILES): CC(C)(C)c1cccc(-c2nncn2-c2cccc(O)c2)c1 [Compound 5c, 1-{3-[3-(tert-Butyl)phenyl]-(1,2,4-triazol-4-yl)}-3-phenol]
- increase in binding affinity in the presence of NaCl, δ (murine δ opioid receptor [1]; [3]): ~1 fold
- Ki (murine δ opioid receptor [1]; [4]): 136 nM
- Ki (murine δ opioid receptor [1]; binding affinity for the δ opioid receptor, summary of Table 3): ~100 nM
- agonist vs. antagonist activity, δ (murine δ opioid receptor [1]; preliminary test, 100 mM NaCl): antagonist
- Receptor Affinity (relative to 100%) δ (murine δ opioid receptor [1]): 39%
- selectivity among the three receptor subtypes (murine δ opioid receptor [2]; at 20 μM, μ, δ, κ): non-selective
- Selectivity for δ receptor (δ/κ) (murine δ opioid receptor [2]): 0.46
- Selectivity for δ Receptor (δ/μ) (murine δ opioid receptor [2]): 0.54
- melting point: 242.5 to 243.5 °C
- increase in binding affinity in the presence of NaCl, κ (human κ receptor; [3]): ~1 fold
- Ki (human κ receptor): 1390 nM
- agonist vs. antagonist activity, κ (human κ receptor; preliminary test, 100 mM NaCl): antagonist
- Receptor Affinity (relative to 100%) κ (human κ receptor): 85%
- increase in binding affinity in the presence of NaCl, μ (murine μ opioid receptor; [3]): ~1 fold
- Ki (murine μ opioid receptor): 444 nM
- agonist vs. antagonist activity, μ (murine μ opioid receptor; preliminary test, 100 mM NaCl): antagonist
- Receptor Affinity (relative to 100%) μ (murine μ opioid receptor): 72%

Structure (SMILES): CN(C)c1nnc(-c2ccc(C(C)(C)C)cc2)n1-c1cccc(O)c1 [Compound 5d, 1-{3-[4-(tert-butyl)phenyl]-5-N,N-dimethylamino-(1,2,4-triazol-4-yl)}-3-phenol]
- Ki (murine δ opioid receptor [1]; [4]): 300 nM
- Ki (human κ receptor): > 10000 nM
- Ki (murine μ opioid receptor): 4000 nM
